In experiment [1] the target is CYP143A1 (Mycobacterium tuberculosis) (UniProt P9WPL2). Conditions: cited from earlier work.
A further experiment deals with T1, CYP142A1 (Mycobacterium tuberculosis, UniProt P9WPL5).
T1 construct: gene cyp142
Type of experiment: biochemical.

A further experiment addresses T2, CYP124A1 (Mycobacterium tuberculosis, UniProt P9WPP3).
T2 construct: gene cyp124
Put plainly: reconstituted turnover, GC-MS detection of 27-hydroxycholesterol. The experiment is classed as biochemical. Particulars: 0.5 μM CYP, 50 μM cholesterol in methyl-β-cyclodextrin; FdrA or FprA with FdxD or FdxE; pH 7.4; 37 °C.

In a further experiment the target is T3, CYP125A1 (Mycobacterium tuberculosis, UniProt P9WPP1).
T3 construct: gene cyp125
T3 sequence (P9WPP1 whole entry): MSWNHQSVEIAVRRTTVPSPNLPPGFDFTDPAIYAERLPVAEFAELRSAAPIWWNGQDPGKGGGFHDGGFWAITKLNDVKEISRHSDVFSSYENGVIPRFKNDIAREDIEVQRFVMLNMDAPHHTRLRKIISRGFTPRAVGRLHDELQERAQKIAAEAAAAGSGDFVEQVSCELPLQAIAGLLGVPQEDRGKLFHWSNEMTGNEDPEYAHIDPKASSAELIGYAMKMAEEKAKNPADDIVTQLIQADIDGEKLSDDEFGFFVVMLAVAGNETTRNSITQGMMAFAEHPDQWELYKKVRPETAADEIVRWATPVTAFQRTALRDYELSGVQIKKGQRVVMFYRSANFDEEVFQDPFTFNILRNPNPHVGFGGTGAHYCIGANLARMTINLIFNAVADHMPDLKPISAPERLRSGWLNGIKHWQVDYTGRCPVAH
Described as above. The experiment is classed as biochemical. Particulars: 0.5 μM CYP, 50 μM cholesterol in methyl-β-cyclodextrin; FdrA or FprA with FdxD or FdxE; pH 7.4; 37 °C.

T1 sequence (P9WPL5 whole entry): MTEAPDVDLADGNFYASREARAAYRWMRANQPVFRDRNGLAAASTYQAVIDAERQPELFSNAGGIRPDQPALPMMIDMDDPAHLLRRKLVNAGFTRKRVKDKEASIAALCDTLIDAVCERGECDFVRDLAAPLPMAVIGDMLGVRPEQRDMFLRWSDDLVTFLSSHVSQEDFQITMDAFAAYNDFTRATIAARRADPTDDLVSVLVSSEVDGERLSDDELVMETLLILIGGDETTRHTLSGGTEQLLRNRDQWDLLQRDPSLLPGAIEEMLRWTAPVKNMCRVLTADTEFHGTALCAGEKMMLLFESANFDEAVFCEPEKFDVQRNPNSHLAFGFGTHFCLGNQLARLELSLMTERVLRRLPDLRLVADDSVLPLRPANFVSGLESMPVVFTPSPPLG
Chain of ferredoxin Rv1786 (O53937 whole entry): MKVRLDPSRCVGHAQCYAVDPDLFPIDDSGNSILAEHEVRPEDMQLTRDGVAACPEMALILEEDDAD
T2 sequence (P9WPP3 whole entry): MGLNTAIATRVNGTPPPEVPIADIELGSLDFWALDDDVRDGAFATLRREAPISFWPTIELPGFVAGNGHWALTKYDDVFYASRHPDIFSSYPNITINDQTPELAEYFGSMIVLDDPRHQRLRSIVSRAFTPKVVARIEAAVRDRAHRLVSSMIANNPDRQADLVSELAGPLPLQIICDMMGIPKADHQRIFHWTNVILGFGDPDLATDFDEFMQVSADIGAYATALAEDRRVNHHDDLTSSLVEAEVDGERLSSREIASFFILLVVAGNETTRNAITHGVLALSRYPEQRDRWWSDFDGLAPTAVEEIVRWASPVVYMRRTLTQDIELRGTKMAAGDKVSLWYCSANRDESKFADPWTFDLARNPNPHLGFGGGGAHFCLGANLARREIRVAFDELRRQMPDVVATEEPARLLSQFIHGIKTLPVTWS
Chain of CYP143A1 (Mycobacterium tuberculosis) (P9WPL2 whole entry): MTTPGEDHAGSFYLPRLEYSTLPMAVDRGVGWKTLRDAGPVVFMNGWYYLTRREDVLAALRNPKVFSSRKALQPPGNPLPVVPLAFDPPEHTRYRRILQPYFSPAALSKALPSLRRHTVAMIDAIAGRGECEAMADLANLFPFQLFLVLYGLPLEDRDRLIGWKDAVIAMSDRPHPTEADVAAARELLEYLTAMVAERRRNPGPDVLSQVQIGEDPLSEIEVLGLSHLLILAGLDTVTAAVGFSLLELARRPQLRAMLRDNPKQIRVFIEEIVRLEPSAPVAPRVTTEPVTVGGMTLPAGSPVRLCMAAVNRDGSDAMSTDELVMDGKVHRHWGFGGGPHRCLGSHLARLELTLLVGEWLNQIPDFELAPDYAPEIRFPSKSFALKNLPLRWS

Usually Kd stands for the constant that tells how readily two partners part at equilibrium. On to ferredoxin Rv1786 (from UniProt O53937), for which the Kd in experiment [1] is 0.337 µM.
For `CC(C)CCC[C@@H](C)[C@H]1CC[C@H]2[C@@H]3CC=C4C[C@@H](O)CC[C@]4(C)[C@H]3CC[C@]12C` [cholesterol], the “reconstituted turnover, GC-MS detection of 27-hydroxycholesterol” value was “CYP142A1 was found to be the most efficient in cholesterol conversion” at CYP142A1; “only FdxD and FdxE were able to support cholesterol conversion” at CYP124A1; “only FdxD and FdxE were able to support cholesterol conversion” on CYP125A1.

Values taken from PMC6208970, “Linking cytochrome P450 enzymes from Mycobacterium tuberculosis to their cognate ferredoxin partners” (Applied Microbiology and Biotechnology, 2018).
